Measured values published in patent US12527519B2, “Neurostimulation devices and methods” (Cardionomix, Inc., priority 2016, dated 2026).

Test system: normal, non-HF ovine model
Assay: Right ventricle vs left ventricle contractility after a change, pressure max(dP/dt) as surrogate, heartbeat-by-heartbeat correlation
Type: in vivo
Settings: max(dP/dt) as surrogate for contractility, calcium at 5 mL
Source text: The correlation was a heartbeat-by-heartbeat analysis. Pressure measurements, taken by a Millar catheter comprising a MEMS pressure sensor, in units of max(dP/dt) was used as a surrogate for contractility.
The first change, a dobutamine injection, provided a very high contractility increase greater than 500%. The average correlation between right ventricle contractility and left ventricle contractility was very good at 0.91, where 1.00 is a perfect correlation. Accordingly, if a subject is given a dobutamine injection, measuring changes to right ventricle contractility can provide accurate information about changes to left ventricle contractility. The first change was repeated three times.
The second change, calcium injection at 5 mL, provided a contractility increase of about 20%. […] The average correlation between right ventricle contractility and left ventricle contractility using a Millar (MEMS) sensor on a catheter was very good at 0.91. The average correlation between right ventricle contractility and left ventricle contractility using a fluid-filled lumen of a Swan-Ganz catheter in communication with an external pressure sensor was also very good at 0.87. […]

calcium [Calcium Injection]
Contractility % Increase: ~20%
Contractility % Increase (listed as calcium injection): about 20%
